Test results taken from ChEMBL document CHEMBL4651402, “Screening of ~5500 FDA-approved drugs and clinical candidates for anti-SARS-CoV-2 activity” (2021).

System: SARS-CoV-2
Assay: microbe, parasite or virus in culture
Conditions: Severe acute respiratory syndrome coronavirus 2, Vero C1008, 48 h

SMILES | IC50 | IC50 (read-out: pIC50 (converted))
C[C@@H](N)Cc1ccccc1 [LEVAMFETAMINE] | > 20 µM | > 20 µM
c1ccc([C@H]2CN3CCSC3=N2)cc1 [LEVAMISOLE] | > 20 µM | > 20 µM
CC1(C)Oc2ccc(C#N)cc2[C@@H](N2CCCC2=O)[C@@H]1O [LEVCROMAKALIM] | > 20 µM | > 20 µM
N[C@H]1CONC1=O [LEVCYCLOSERINE] | > 20 µM | > 20 µM
CC(C)(C)NC[C@H](O)COc1cccc2c1CCCC2=O [LEVOBUNOLOL] | > 20 µM | > 20 µM
C[C@@H]1CN([C@H]2CC[C@](C#N)(c3ccc(F)cc3)CC2)CC[C@]1(C(=O)O)c1ccccc1 [LEVOCABASTINE] | > 20 µM | > 20 µM
C[N+](C)(C)C[C@H](O)CC(=O)[O-] [LEVOCARNITINE] | > 20 µM | > 20 µM
N[C@@H](Cc1ccc(O)c(O)c1)C(=O)O [LEVODOPA] | > 20 µM | > 20 µM
C[C@@H](CN1CCOCC1)C(C(=O)N1CCCC1)(c1ccccc1)c1ccccc1 [LEVOMORAMIDE] | > 20 µM | > 20 µM
CC(=O)Oc1cc(O[C@H](C)CCCc2ccccc2)cc2c1[C@@H]1C[C@H](O)CC[C@H]1[C@H](C)N2 [LEVONANTRADOL] | > 20 µM | > 20 µM
C[C@H](N)[C@H](O)c1ccc(O)c(O)c1 [LEVONORDEFRIN] | > 20 µM | > 20 µM
CN[C@@H](C)CC1CCCCC1 [LEVOPROPYLHEXEDRINE] | > 20 µM | > 20 µM
CN1CC[C@]23CCCC[C@H]2[C@H]1Cc1ccc(O)cc13 [LEVORPHANOL] | > 20 µM | > 20 µM
C[C@@H]1CC(=O)NN=C1c1ccc(NN=C(C#N)C#N)cc1 [LEVOSIMENDAN] | > 20 µM | > 20 µM
N[C@@H](Cc1cc(I)c(Oc2cc(I)c(O)c(I)c2)c(I)c1)C(=O)O [LEVOTHYROXINE] | > 20 µM | > 20 µM
Clc1cccc(C(c2ccc3[nH]cnc3c2)n2ccnc2)c1 (stereo unspecified) [LIAROZOLE] | > 20 µM | > 20 µM
C=CC(C)(C)c1cc(/C=C/C(=O)c2ccc(O)cc2)c(OC)cc1O [LICOAGROCHACONE A] | > 20 µM | > 20 µM
CC1(C)Cc2c(-c3ccccc3)c(-c3ccc(Cl)cc3)c(CC(=O)O)n2C1 [LICOFELONE] | > 20 µM | > 20 µM
CNC(=N)NC(=O)Nc1c(C)cccc1C [LIDAMIDINE] | > 20 µM | > 20 µM
COc1ccc(C2CNC(=O)C2)cc1OCCCN1CCC(C(=O)c2ccc(F)cc2)CC1 (stereo unspecified) [LIDANSERIN] | > 20 µM | > 20 µM
CCN(CC)CC(=O)Nc1c(C)cccc1C [LIDOCAINE] | > 20 µM | > 20 µM

SMILES | IC50 | IC50 (read-out: pIC50 (converted))
Cc1cccc(C)c1NC(=O)CN(CC(=O)O)CC(=O)O [LIDOFENIN] | > 20 µM | > 20 µM
Cc1ccc(-c2nc(CN3CCN(C(c4ccccc4)c4ccccc4)CC3)c(C)[nH]2)cc1 [LIFARIZINE] | > 20 µM | > 20 µM
Cc1nc(C)c(C)nc1C [LIGUSTRAZINE] | > 20 µM | > 20 µM
CC(C)(C)c1ccc(Oc2ccc(N)cn2)cc1 [LIMANTRAFIN] | > 20 µM | > 20 µM
CC#CCn1c(N2CCC[C@@H](N)C2)nc2c1c(=O)n(Cc1nc(C)c3ccccc3n1)c(=O)n2C [LINAGLIPTIN] | > 20 µM | > 20 µM
Cc1cccc(C)c1CNc1cc(C(=O)NCCO)cn2c(C)c(C)nc12 [LINAPRAZAN] | > 20 µM | > 20 µM
CCC[C@@H]1C[C@@H](C(=O)N[C@@H]([C@H]2O[C@H](SC)[C@H](O)[C@@H](O)[C@H]2O)[C@@H](C)O)N(C)C1 [LINCOMYCIN] | > 20 µM | > 20 µM
CC(=O)NC[C@H]1CN(c2ccc(N3CCOCC3)c(F)c2)C(=O)O1 [LINEZOLID] | > 20 µM | > 20 µM
Cc1ccc(F)c(NC(=O)Nc2ccc(-c3cccc4[nH]nc(N)c34)cc2)c1 [LINIFANIB] | > 20 µM | > 20 µM
CN1CCC/C1=N\C(=N\c1ccccc1)N1CCOCC1 [LINOGLIRIDE] | > 20 µM | > 20 µM
CCCCC/C=C\C/C=C\CCCCCCCC(=O)O [LINOLEIC ACID] | > 20 µM | > 20 µM
O=C1N(c2ccccc2)c2ccccc2C1(Cc1ccncc1)Cc1ccncc1 [LINOPIRDINE] | > 20 µM | > 20 µM
[NH-]c1c[n+](N2CCOCC2)no1 [LINSIDOMINE] | > 20 µM | > 20 µM
C[C@]1(O)C[C@@H](c2nc(-c3ccc4ccc(-c5ccccc5)nc4c3)c3c(N)nccn32)C1 [LINSITINIB] | > 20 µM | > 20 µM
CCN1CCN=C1CNC(=O)c1cc(Cl)c(N)cc1OC [LINTOPRIDE] | > 20 µM | > 20 µM
O=C(O)CCCCC1CCSS1 (stereo not drawn) [LIPOIC ACID, ALPHA] | > 20 µM | > 20 µM
COc1cccc(N(C)C(=S)Oc2ccc3c(c2)CCCC3)n1 [LIRANAFTATE] | > 20 µM | > 20 µM
NCCCC[C@H](N[C@@H](CCc1ccccc1)C(=O)O)C(=O)N1CCC[C@H]1C(=O)O [LISINOPRIL ANHYDROUS] | > 20 µM | > 20 µM
C[C@@H](O)CCCCn1c(=O)c2c(ncn2C)n(C)c1=O [LISOFYLLINE] | > 20 µM | > 20 µM
c1ccc2cc(COC3CCNCC3)ccc2c1 [LITOXETINE] | > 20 µM | > 20 µM
CN1[C@@H](CC(=O)c2ccccc2)CCC[C@H]1C[C@H](O)c1ccccc1 [LOBELINE] | > 20 µM | > 20 µM

SMILES | IC50 | IC50 (read-out: pIC50 (converted))
CCOC(=O)Nc1nc2ccccc2[nH]1 [LOBENDAZOLE] | > 20 µM | > 20 µM
N#Cc1cc(NC(=O)C(=O)O)c(Cl)c(NC(=O)C(=O)O)c1 [LODOXAMIDE] | > 20 µM | > 20 µM
CN(CCCN1c2ccccc2CCc2ccccc21)CC(=O)c1ccc(Cl)cc1 [LOFEPRAMINE] | > 20 µM | > 20 µM
CC(Oc1c(Cl)cccc1Cl)C1=NCCN1 (stereo unspecified) [LOFEXIDINE] | > 20 µM | > 20 µM
Fc1ccc(NC(=S)Nc2cc(Cl)cc(Cl)c2)cc1 [LOFLUCARBAN] | > 20 µM | > 20 µM
CCn1cc(C(=O)O)c(=O)c2cc(F)c(N3CCNC(C)C3)c(F)c21 (stereo unspecified) [LOMEFLOXACIN] | > 20 µM | > 20 µM
Nc1nc(OCc2cc(Br)cs2)c2[nH]cnc2n1 [LOMEGUATRIB] | > 20 µM | > 20 µM
COc1ccc(Cl)c2c1CCCC2N(C)C (stereo unspecified) [LOMETRALINE] | > 20 µM | > 20 µM
O=C(NC1CCN(CCCCC2(C(=O)NCC(F)(F)F)c3ccccc3-c3ccccc32)CC1)c1ccccc1-c1ccc(C(F)(F)F)cc1 [LOMITAPIDE] | > 20 µM | > 20 µM
O=NN(CCCl)C(=O)NC1CCCCC1 [LOMUSTINE] | > 20 µM | > 20 µM
NC(=O)N1CCC(CC(=O)N2CCC([C@H]3c4ncc(Br)cc4CCc4cc(Cl)cc(Br)c43)CC2)CC1 [LONAFARNIB] | > 20 µM | > 20 µM
COc1c(OC)c(OC(C)=O)c2cc(Cl)ccc2c1OC(C)=O [LONAPALENE] | > 20 µM | > 20 µM
O=C(O)Cc1cn(-c2ccccc2)nc1-c1ccc(Cl)cc1 [LONAZOLAC] | > 20 µM | > 20 µM
O=C(O)c1nn(Cc2ccc(Cl)cc2Cl)c2ccccc12 [LONIDAMINE] | > 20 µM | > 20 µM
CN1CCN(/C=C2\N=C3CN=C(c4ccccc4Cl)c4cc([N+](=O)[O-])ccc4N3C2=O)CC1 [LOPRAZOLAM] | > 20 µM | > 20 µM
N[C@@H](C(=O)N[C@@H]1C(=O)N2C(C(=O)O)=C(Cl)CC[C@H]12)c1ccccc1 [LORACARBEF ANHYDROUS] | > 20 µM | > 20 µM
CCOC(=O)N1CCC(=C2c3ccc(Cl)cc3CCc3cccnc32)CC1 [LORATADINE] | > 20 µM | > 20 µM
O=C1Nc2ccc(Cl)cc2C(c2ccccc2Cl)=NC1O (stereo unspecified) [LORAZEPAM] | > 20 µM | > 20 µM
Clc1ccc(N2CCN(C/C=C/c3ccccc3)CC2)nn1 [LORCINADOL] | > 20 µM | > 20 µM
Cl/C(=C\n1cncn1)c1ccc(Cl)cc1Cl [LORECLEZOLE] | > 20 µM | > 20 µM
CCCCCN(CCCCC)C(=O)C(CCC(=O)O)NC(=O)c1ccc(Cl)c(Cl)c1 (stereo unspecified) [LORGLUMIDE] | > 20 µM | > 20 µM
